Assay results: patent US12466821B2 (Novartis AG, priority 2018, dated 2025)

Assays:
[1] = test system: Luciferase-encoding HCMV, AD169 strain; test: CMV Luciferase assay (cellular herpesvirus replication); type: cell-based; conditions: Human betaherpesvirus 5, AD169, read-out: CMV-Luc Cellular EC50
How it was run: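 Neonatal human dermal fibroblasts were pretreated 1 h with compound (final 0.0159–50 μM or 0.00318–10 μM, 0.5% DMSO), then infected at MOI 1 with AD169 carrying pp28-promoter luciferase. After 72 h at 37 °C, Renilla-Glo luminescence normalized to no-virus and virus-only controls; EC50 by 4-parameter logistic model.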

[2] = molecular target: human HSV DNA polymerase UL30 (Human herpesvirus 1 (strain 17) (HHV-1) (Human herpes simplex virus 1), UniProt P04293); test: HSV polymerase biochemical assay (molecular beacon-based)
How it was run: (§1)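 Readout was beacon fluorescence (ex 480, em 535 nm), used to derive IC50. Each dNTP was at 1.25 uM, with 200 nM primer and 100 nM beacon, after a 30-min RT inhibitor preincubation. Enzyme was 625 pM for HSV UL30 (20 min RT reaction) or 100 pM for CMV UL54 (60 min RT), both sf9-expressed MBP fusions, in pH 7.5 Tris buffer with MgCl2.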

[3] = molecular target: human CMV DNA polymerase UL54 (Human cytomegalovirus (strain AD169) (HHV-5) (Human herpesvirus 5), UniProt P08546); test: CMV polymerase biochemical assay (molecular beacon-based)
How it was run: as §1

Row | Compound | EC50 [1] [nM] | IC50 [2] [nM] | IC50 [3] [nM]
1 | CS(=O)(=O)N(CCN1CCn2c(ccc(C(=O)NCc3ccc(Cl)cc3)c2=O)C1=O)C1CC1 [Example 115, N-(4-chlorobenzyl)-2-(2-(N-cyclopropylmethylsulfonamido)ethyl)-1,6-dioxo-2,3,4,6-tetrahydro-1H-pyrido[1,2-a]pyrazine-7-carboxamide] | 15000 | 13600 | 747
2 | CN(CCN1CCn2c(c(CO)cc(C(=O)NCc3ccc(Cl)cc3)c2=O)C1=O)S(C)(=O)=O [Example 137, N-(4-chlorobenzyl)-9-(hydroxylmethyl)-2-(2-(N-methylmethylsulfonamido)ethyl)-1,6-dioxo-1,3,4,6-tetrahydro-2H-pyrido[1,2-a]pyrazine-7-carboxamide] | 19700 | 3900 | 348
3 | N#Cc1ccc(CNC(=O)c2ccc3n(c2=O)CCN(CC2(S(=O)(=O)N4CCC4)CC2)C3=O)cc1 [Example 88-2] | 39.5 | 73.5 | 3.2
4 | N#Cc1ccc(CNC(=O)c2ccc3n(c2=O)CCN(CC2(S(=O)(=O)CC4CC4)CC2)C3=O)cc1F [Example 107-3] | 174 | 72.6 | 2.2
5 | N#Cc1ccc(CNC(=O)c2ccc3n(c2=O)CCN(CC2(S(=O)(=O)C4CCC4)CC2)C3=O)cc1 [Example 79-1] | 33.7 | 33.4 | 1.3
6 | CS(=N)(=O)C1(CN2CCn3c(ccc(C(=O)NCc4ccc(Cl)cc4)c3=O)C2=O)CC1 (stereo not drawn) [Example 95, N-(4-chlorobenzyl)-2-((1-(S-methylsulfonimidoyl)cyclopropyl)methyl)-1,6-dioxo-2,3,4,6-tetrahydro-1H-pyrido[1,2-a]pyrazine-7-carboxamide] | 263 | 722 | 16.6
7 | N#CC1(CS(=O)(=O)C2(CN3CCn4c(ccc(C(=O)NCc5ccc(Cl)cc5)c4=O)C3=O)CC2)CC1 [Example 110, N-(4-chlorobenzyl)-2-((1-(((1-cyanocyclopropyl)methyl)sulfonyl)cyclopropyl)methyl)-1,6-dioxo-1,3,4,6-tetrahydro-2H-pyrido pyrazine-7-carboxamide] | 81.7 | 33.5 | 1.9
8 | N#Cc1ccc(CNC(=O)c2ccc3n(c2=O)CCN(CC2(S(=O)(=O)C4(C(F)(F)F)CC4)CC2)C3=O)cc1F [Example 97-2] | 189 | 90.8 | 3.2
9 | CC(CN1CCn2c(ccc(C(=O)NCc3ccc(C#N)cc3)c2=O)C1=O)S(=O)(=O)C1CC1 (stereo not drawn) [Example 192] | 8050 | 3010 | 194
10 | CC(C)(c1nnn[nH]1)S(=O)(=O)C1(CN2CCn3c(ccc(C(=O)NCc4ccc(Cl)cc4)c3=O)C2=O)CC1 [Example 186, 2-((1-((2-(1H-tetrazol-5-yl)propan-2-yl)sulfonyl)cyclopropyl)methyl)-N-(4-chlorobenzyl)-1,6-dioxo-1,3,4,6-tetrahydro-2H-pyrido[1,2-a]pyrazine-7-carboxamide] | 6660 | 20.5 | 1.2
11 | NS(=O)(=O)C1(CN2CCn3c(ccc(C(=O)NCc4ccc(Cl)cc4)c3=O)C2=O)CC1 [Example 72-2, N-(4-chlorobenzyl)-1,6-dioxo-2-((1-sulfamoylcyclopropyl)methyl)-2,3,4,6-tetrahydro-1H-pyrido[1,2-a]pyrazine-7-carboxamide] | 50.2 | 26.4 | 1.2
12 | COC1(S(=O)(=O)C2(CN3CCn4c(ccc(C(=O)NCc5ccc(C#N)cc5)c4=O)C3=O)CC2)CC1 [Example 189] | 55.7 | 59.8 | 1.1
13 | CS(=O)(=O)CCCN1CCn2c(c(CO)cc(C(=O)NCc3ccc(Cl)cc3)c2=O)C1=O [Example 139] | 50000 | 3580 | 989
14 | Cc1cc(C(=O)NCc2ccc(Cl)cc2)c(=O)n2c1C(=O)N(CCN1CCCS1(=O)=O)CC2 [Example 66-1] | 417 | 125 | 37.5
